Measured values: patent publication US20200085058A1, “SELECTIVE HERBICIDES BASED ON SUBSTITUTED THIEN-3-YL-SULPHONYLAMINO(THIO)CARBONYLTRIAZOLIN(THI)ONES AND SAFENERS” (Bayer CropScience Aktiengesellschaft, priority 2001, published 2020)

Tests used:
Format in all cases: in vivo
winter barley [1] = experiment: Example A-2 post-emergence test/greenhouse, crop damage, 0.5% Renex-36
Protocol: (§1) The active compound or safener components are in each case dissolved in a few ml (generally 2-3 ml) of solvent (generally acetone or N,N-dimethyl-formamide), and the solutions are combined and then—if appropriate after addition of an emulsifier—diluted with water to the desired concentration. In general, an aqueous spray liquor was prepared using 0.1% of the additive Renex-36.
(§2) The test plants are grown under controlled conditions (temperature, light, atmospheric humidity) in a greenhouse. The test plants are sprayed when they have reached a height of 5-15 cm. The concentration of the spray liquor is chosen such that the particular amounts of active compound desired are applied in 500 l of water/ha.
(§3) After spraying, the pots with the test plants are kept in a greenhouse chamber under controlled conditions (temperature, light, atmospheric humidity) until the test has ended. About three weeks after the application, the degree of damage to the crop plants is rated in % damage in comparison to the development of the untreated control.
(§4) The figures denote: • 0%=no damage (like untreated control) • 100%=total destruction/damage
Here, an aqueous spray liquor comprising 0.5% of the additive Renex-36 was prepared.

winter wheat [2] = experiment: Example A-5 post-emergence test/greenhouse, crop damage
Protocol: as §1, §2, §3, §4
(§5) Mefenpyr-diethyl was used as 100 EC and the compound of Ex. No. I-2 was used as 10 WP.

[3] = test system: maize of the cultivar "LIXIS"; experiment: Example A-3 post-emergence test/greenhouse, crop damage, Maize 3; settings: 7 days after the application, Table A-3-3
Protocol: as §1, §2
(§6) After spraying, the pots with the test plants are kept in a greenhouse chamber under controlled conditions (temperature, light, atmospheric humidity) until the test has ended. […]
as §4
(§7) The compound I-2 was used as 10 WP. In each case, Marlipal® was added in an amount of 500 ml/ha.
(§8) Evaluation was carried out as early as 7 days after the application. • Maize 1=maize of the cultivar “Prinz” • Maize 2=maize of the cultivar “Pioneer” • Maize 3=maize of the cultivar “LIXIS”

maize cv. "Pioneer" = experiment: Example A post-emergence test/greenhouse, crop damage, 0.1% Renex-36; settings: 10 g of a.i./ha; Table A1; about three weeks after application
Protocol: The active compound or safener components are in each case dissolved in a few ml (generally 2-3 ml) of solvent (generally acetone or N,N-dimethyl-formamide), and the solutions are combined and then—if appropriate after addition of an emulsifier—diluted with water to the desired concentration. […] The test plants are grown under controlled conditions (temperature, light, atmospheric humidity) in a greenhouse. […] The concentration of the spray liquor is chosen such that the particular amounts of active compound desired are applied in 500 l of water/ha. After spraying, the pots with the test plants are kept in a greenhouse chamber under controlled conditions (temperature, light, atmospheric humidity) until the test has ended. About three weeks after the application, the degree of damage to the crop plants is rated in % damage in comparison to the development of the untreated control. […] Active compounds, application rates, test plants and results are shown in the tables below, the terms being used in the tables being as defined below: • maize=maize cv. “Pioneer” • a.i.=active ingredient=active compound/safener

[4] = test system: maize of the cultivar "Pioneer"; experiment: Example A-3 post-emergence test/greenhouse, crop damage, Maize 2; settings: 7 days after the application, Table A-3-2
Protocol: as §1, §2, §6, §4, §7, §8

[5] = test system: maize of the cultivar "Prinz"; experiment: Example A-3 post-emergence test/greenhouse, crop damage, Maize 1; settings: 7 days after the application, Table A-3-1
Protocol: as §1, §2, §6, §4, §7, §8

winter barley [6] = experiment: Example A-5 post-emergence test/greenhouse, crop damage
Protocol: as §1, §2, §3, §4, §5

winter wheat [7] = experiment: Example A-4 post-emergence test/greenhouse, crop damage; settings: safener alone 50 g of a.i./ha; Table A-4-1
Protocol: as §1, §2, §3, §4
(§9) Mefenpyr-diethyl was used as 100 EC.
(§10) The compounds of Ex. Nos. I-2 and I-13 were used as 10 WP.

winter barley [8] = experiment: as above; settings: safener alone 50 g of a.i./ha; Table A-4-4
Protocol: as §1, §2, §3, §4, §9, §10

Structure (SMILES): COC(=O)c1csc(C)c1S(=O)(=O)[N-]C(=O)n1nc(OC)n(C)c1=O.[Na+] [I-2, sodium salt]
- Damage winter barley (in %) (winter barley [1]; 2 g of a.i./ha, Table A-2-1): 50%
- Damage winter barley (in %) (winter barley [1]; 4 g of a.i./ha, Table A-2-1): 60%

Structure (SMILES): CCOC(=O)c1csc(C)c1S(=O)(=O)NC(=O)n1nc(OC)n(C)c1=O [I-13]
- Damage winter wheat (in %) (winter wheat [2]; in vivo): 50%

Structure (SMILES): COC(=O)c1csc(C)c1S(=O)(=O)NC(=O)n1nc(OC)n(C)c1=O [I-2]
- Damage Maize 3 (in %) ([3]; 8 g of a.i./ha): 20%
- Damage Maize 3 (in %) ([3]; 15 g of a.i./ha): 40%
- Damage maize (in %) (maize cv. "Pioneer"): 35%
- Damage maize 2 (in %) ([4]; 8 g of a.i./ha): 10%
- Damage maize 2 (in %) ([4]; 15 g of a.i./ha): 20%
- Damage Maize 1 (in %) ([5]; 8 g of a.i./ha): 10%
- Damage Maize 1 (in %) ([5]; 15 g of a.i./ha): 20%

Structure (SMILES): COCC(=O)Nc1ccc(S(=O)(=O)NC(=O)c2ccccc2OC)cc1 [Comp. No. IId-25]
- Damage winter barley (in %) (winter barley [1]; safener alone 30 g of a.i./ha, Table A-2-2): 0%
- Damage winter barley (in %) (winter barley [1]; safener alone 100 g of a.i./ha, Table A-2-2): 0%

Structure (SMILES): CCOC(=O)C1=NN(c2ccc(Cl)cc2Cl)C(C)(C(=O)OCC)C1 (centres unmarked) [mefenpyr-diethyl, diethyl 1-(2,4-dichloro-phenyl)-4,5-dihydro-5-methyl-1H-pyrazole-3,5-dicarboxylate, reference compound]
- Damage winter wheat (in %) (winter wheat [2]; safener alone 50 g of a.i./ha, Table A-5-1): 0%
- Damage winter wheat (in %) (winter wheat [2]; safener alone 50 g of a.i./ha, Table A-5-2): 0%
- Damage winter wheat (in %) (winter wheat [2]; safener alone 50 g of a.i./ha, Table A-5-3): 0%
- Damage winter wheat (in %) (winter wheat [2]; safener alone 50 g of a.i./ha, Table A-5-4): 0%
- Damage winter wheat (in %) (winter wheat [2]; safener alone 50 g of a.i./ha, Table A-5-5): 0%
- Damage winter barley (in %) (winter barley [6]; safener alone 50 g of a.i./ha, Table A-5-11): 0%
- Damage winter wheat (in %) (winter wheat [7]): 0%
- Damage winter barley (in %) (winter barley [8]): 0%

Structure (SMILES): CCOn1c(CC)nn(C(=O)NS(=O)(=O)c2c(C(=O)OC)csc2C)c1=O [I-17]
- Damage winter wheat (in %) (winter wheat [2]; 8 g of a.i./ha, Table A-5-7): 40%
- Damage winter wheat (in %) (winter wheat [2]; 15 g of a.i./ha, Table A-5-7): 50%
- Damage winter wheat (in %) (winter wheat [2]; 30 g of a.i./ha, Table A-5-7): 70%
- Damage winter barley (in %) (winter barley [6]; 8 g of a.i./ha, Table A-5-13): 70%
- Damage winter barley (in %) (winter barley [6]; 15 g of a.i./ha, Table A-5-13): 70%
- Damage winter barley (in %) (winter barley [6]; 30 g of a.i./ha, Table A-5-13): 80%
